The structures appear in SMILES notation. In brackets after ≈: the same amount, converted by molar mass.

Experiment [1] concerns gram-positive and gram-negative bacteria. Conditions: cited from earlier work.
In experiment [2] the test system is Enterobacter cloacae 132E. The experiment is described as follows: In vitro antibacterial activity test (agar dilution, Mueller Hinton Agar). In kind it is cell-based. The note with it: 18 hours at 37° C. As for the experimental part:
(§1) (1) In vitro antibacterial activity test
(§2) 2 fold dilutions of the testing compounds were employed by using agar dilution method of Mueller Hinton Agar. After 18 hours at 37° C., the susceptibility (MIC) of the test organism was accepted as the lowest concentration of compound capable of producing complete inhibition of growth as judged by the naked eye.

For experiment [3], the system named is Staphylococcus aureus SG511. The experiment is described as above. Type of experiment: cell-based. The note with it: 18 hours at 37° C. As for the experimental part: as §1, §2
Experiment [4] deals with Escherichia coli DC2. The description is as above. In kind it is cell-based. Conditions: 18 hours at 37° C. The procedure:
as §1, §2

Experiment [5] has as its system Streptococcus faecium MD8. Described as above. Type of experiment: cell-based. The note with it: Enterococcus faecium, 18 hours at 37° C. As for the experimental part: as §1, §2
Experiment [6] relates to β-lactamases. Conditions: cited from earlier work.

As for `C=N[C@@H](C(=O)N[C@@H]1C(=O)N2[C@@H]1SC(C)(C)[C@@H]2C(=O)O)c1ccccc1` [Methanpicillin], the “inhibition against gram-positive and gram-negative bacteria” value in experiment [1] is “marked increase in inhibition against gram-positive and gram-negative bacteria”.

In the case of `C=N[C@@H](C(=O)N[C@@H]1C(=O)N2[C@@H]1SC(C)(C)[C@@H]2C(=O)OCOC(=O)[C@@H]1N2C(=O)C[C@H]2S(=O)(=O)C1(C)C)c1ccccc1` [compound (I), 1,1-dioxopenicillanoyl oxymethyl D-6-[(α-methyleneamino)phenylacetamido]-penicillanate], the MIC in experiment [2] is 1.56 µg/mL (≈ 2.58 µM); in experiment [3], 0.098 µg/mL (≈ 0.162 µM); in experiment [4] it was 1.56 µg/mL (≈ 2.58 µM); in experiment [5] it was 0.781 µg/mL (≈ 1.29 µM).

With `CC1(C)[C@H](C(=O)O)N2C(=O)C[C@H]2S1(=O)=O` [sulbactam, 3.3-dimethyl-7-oxo-4thia-1-azabicyclo(3.2.0)heptane-2-carboxylic acid, 4-4-dioxide [2S(2α,5α)]], the “inhibition of β-lactamases” value in experiment [6] (alone) is given as “poor inhibitor of β-lactamases”. Besides, the “inhibition of the enzymatic hydrolysis of antibiotics” value in experiment [6] (with β-lactamase inhibiting antibiotics) was “modest increase in inhibition of the enzymatic hydrolysis of antibiotics”.

Values taken from US5004738A, “1,1-dioxopenicillanoyl oxymethyl D-6-(α-(methyleneamino) phenylacetamido)-penicillanate and a process for the preparation thereof” (priority 1989, dated 1991).
